Laboratory results as given in PMC9021288 (Nature Communications, 2022).
Values joined by “and” are separate entries in the source; they are usually repeats but may differ in a detail not shown here. Equal values may be shown once. “Also recorded” adds a separate entry of the source.

How the values were obtained:
[1] = tested on: P. falciparum 3D7 trophozoite-infected RBCs, CoA pathway metabolites; assay: Metabolomics of treated infected RBCs (LC/MS); type: cell-based, Plasmodium falciparum
Procedure: P. falciparum metabolomics analysis was performed by LC/MS as previously described. Briefly, parasite cultures were tightly synchronized at the ring stage one cycle prior to extraction. Trophozoite cultures at 5-10% parasitemia were purified to >90% parasitemia by magnetic purification. Parasites were counted using a hemocytometer, aliquoted to 1 × 10^8 cells per condition in 5 ml medium and then placed into an incubator for 1 h to allow them to reach a metabolically stable state. […] Blank processing samples were also quenched in the same manner to assess background metabolite levels. The samples were centrifuged, the supernatant was collected in a new tube, dried using a nitrogen gas drying rack and stored at -80 °C until they were run on the LC/MS platform.
For each analytical run, a pooled sample was generated by combining equivalent volumes of each parasite sample to assess metabolite detection and run at the beginning, middle, and end of each analytical batch to detect any possible time-dependent sensitivity changes. The full metabolomics datasets are publicly available on the Metabolomics Workbench database under ST001985[76].

[2] = tested on: human G6PD-A-deficient RBCs; assay: Hemolytic toxicity in NSG mice engrafted with G6PD-deficient human RBCs; conditions: for Hematocrit / Spleen weight: individual mice
Procedure: Hemolytic toxicity was determined in female NSG mice (Jackson Laboratories) using erythrocytes from a G6PD-A-deficient blood donor (0.4 u/g hemoglobin).

[3] = molecular target: T1, panel of human receptors and channels (Homo sapiens, UniProt P23975); type: binding; conditions: norepinephrine transporter (h) (antagonist radioligand); Rep1, Rep2, Mean
T1 construct: purchased Eurofins CEREP

[4] = molecular target: T2, panel of human receptors and channels (Homo sapiens, UniProt P34981); type: binding; conditions: TRH1 (h) (agonist radioligand); Rep1, Rep2, Mean
T2 construct: purchased Eurofins CEREP

[5] = molecular target: T3, panel of human receptors and channels (Homo sapiens, UniProt Q01959); type: binding; conditions: dopamine transporter (h) (antagonist radioligand); Rep1, Rep2, Mean
T3 construct: purchased Eurofins CEREP

[6] = molecular target: T4, panel of human receptors and channels (Homo sapiens, UniProt P30542); type: binding; conditions: A1 (h) (antagonist radioligand); Rep1, Rep2, Mean
T4 construct: purchased Eurofins CEREP

[7] = molecular target: T5, panel of human receptors and channels (Homo sapiens, UniProt P21917); type: binding; conditions: D4.4 (h) (antagonist radioligand); Rep1, Rep2, Mean
T5 construct: purchased Eurofins CEREP

[8] = molecular target: T6, panel of human receptors and channels (Homo sapiens, UniProt P08588); type: binding; conditions: β1 (h) (agonist radioligand); Rep1, Rep2, Mean
T6 construct: purchased Eurofins CEREP

[9] = molecular target: T7, panel of human receptors and channels (Homo sapiens, UniProt P35367); type: binding; conditions: H1 (h) (antagonist radioligand); Rep1, Rep2, Mean
T7 construct: purchased Eurofins CEREP

[10] = molecular target: T8, panel of human receptors and channels (Homo sapiens, UniProt P21554); type: binding; conditions: CB1 (h) (agonist radioligand); Rep1, Rep2, Mean
T8 construct: purchased Eurofins CEREP

[11] = molecular target: T9, panel of human receptors and channels (Homo sapiens, UniProt P24530); type: binding; conditions: ETB (h) (agonist radioligand); Rep1, Rep2, Mean
T9 construct: purchased Eurofins CEREP

[12] = molecular target: T10, panel of human receptors and channels (Homo sapiens, UniProt Q9Y5N1); type: binding; conditions: H3 (h) (agonist radioligand); Rep1, Rep2, Mean
T10 construct: purchased Eurofins CEREP

[13] = molecular target: T11, panel of human receptors and channels (Homo sapiens, UniProt P32238); type: binding; conditions: CCK1 (CCKA) (h) (agonist radioligand); Rep1, Rep2, Mean
T11 construct: purchased Eurofins CEREP

[14] = molecular target: T12, panel of human receptors and channels (Homo sapiens, UniProt P21728); type: binding; conditions: D1 (h) (antagonist radioligand); Rep1, Rep2, Mean
T12 construct: purchased Eurofins CEREP

[15] = molecular target: T13, panel of human receptors and channels (Homo sapiens, UniProt P37231); type: binding; conditions: PPARγ (h) (agonist radioligand); Rep1, Rep2, Mean
T13 construct: purchased Eurofins CEREP

[16] = molecular target: T14, panel of human receptors and channels (Homo sapiens, UniProt P07550); type: binding; conditions: β2 (h) (antagonist radioligand); Rep1, Rep2, Mean
T14 construct: purchased Eurofins CEREP

[17] = 10 mg/kg group, day 0, individual mice
[18] = 10 mg/kg group, day 4, individual mice
[19] = 10 mg/kg group, day 7, individual mice
[20] = 25 mg/kg group, day 0, individual mice
[21] = 25 mg/kg group, day 4, individual mice
[22] = 25 mg/kg group, day 7, individual mice
[23] = 50 mg/kg group, day 0, individual mice
[24] = 50 mg/kg group, day 4, individual mice
[25] = 50 mg/kg group, day 7, individual mice

T12 sequence (P21728 whole entry): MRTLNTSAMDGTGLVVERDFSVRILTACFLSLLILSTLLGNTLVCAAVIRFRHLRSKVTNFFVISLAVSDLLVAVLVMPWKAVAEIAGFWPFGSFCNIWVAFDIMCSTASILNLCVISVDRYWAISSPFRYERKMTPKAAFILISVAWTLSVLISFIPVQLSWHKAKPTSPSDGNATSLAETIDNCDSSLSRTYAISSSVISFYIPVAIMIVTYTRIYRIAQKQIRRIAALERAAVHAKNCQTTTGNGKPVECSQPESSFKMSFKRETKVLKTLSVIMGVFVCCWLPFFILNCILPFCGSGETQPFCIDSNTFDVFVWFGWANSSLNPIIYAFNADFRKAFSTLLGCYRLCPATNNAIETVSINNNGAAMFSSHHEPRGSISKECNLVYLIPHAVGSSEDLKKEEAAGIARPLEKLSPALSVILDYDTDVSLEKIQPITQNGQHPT
T5 sequence (P21917 whole entry): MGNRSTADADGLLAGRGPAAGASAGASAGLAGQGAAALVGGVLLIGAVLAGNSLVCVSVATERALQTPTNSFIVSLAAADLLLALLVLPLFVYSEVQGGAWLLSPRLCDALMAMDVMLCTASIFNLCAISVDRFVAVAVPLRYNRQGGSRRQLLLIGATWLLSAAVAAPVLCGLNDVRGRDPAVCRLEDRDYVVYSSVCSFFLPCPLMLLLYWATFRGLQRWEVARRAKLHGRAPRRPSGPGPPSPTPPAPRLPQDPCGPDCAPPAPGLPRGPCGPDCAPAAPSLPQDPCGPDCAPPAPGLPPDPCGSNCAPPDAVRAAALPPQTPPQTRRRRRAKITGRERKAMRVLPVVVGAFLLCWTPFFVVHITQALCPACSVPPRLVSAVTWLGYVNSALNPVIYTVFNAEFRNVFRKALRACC
T4 sequence (P30542 whole entry): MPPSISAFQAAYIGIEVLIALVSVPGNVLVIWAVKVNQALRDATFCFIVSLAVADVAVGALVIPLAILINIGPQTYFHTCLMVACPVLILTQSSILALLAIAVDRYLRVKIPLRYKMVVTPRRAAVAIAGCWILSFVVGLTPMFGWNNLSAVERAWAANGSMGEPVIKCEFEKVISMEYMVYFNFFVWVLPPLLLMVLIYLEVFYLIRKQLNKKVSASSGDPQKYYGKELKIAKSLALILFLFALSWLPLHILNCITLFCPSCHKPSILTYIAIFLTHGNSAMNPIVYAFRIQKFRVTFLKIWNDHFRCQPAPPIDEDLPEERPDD
T7 sequence (P35367 whole entry): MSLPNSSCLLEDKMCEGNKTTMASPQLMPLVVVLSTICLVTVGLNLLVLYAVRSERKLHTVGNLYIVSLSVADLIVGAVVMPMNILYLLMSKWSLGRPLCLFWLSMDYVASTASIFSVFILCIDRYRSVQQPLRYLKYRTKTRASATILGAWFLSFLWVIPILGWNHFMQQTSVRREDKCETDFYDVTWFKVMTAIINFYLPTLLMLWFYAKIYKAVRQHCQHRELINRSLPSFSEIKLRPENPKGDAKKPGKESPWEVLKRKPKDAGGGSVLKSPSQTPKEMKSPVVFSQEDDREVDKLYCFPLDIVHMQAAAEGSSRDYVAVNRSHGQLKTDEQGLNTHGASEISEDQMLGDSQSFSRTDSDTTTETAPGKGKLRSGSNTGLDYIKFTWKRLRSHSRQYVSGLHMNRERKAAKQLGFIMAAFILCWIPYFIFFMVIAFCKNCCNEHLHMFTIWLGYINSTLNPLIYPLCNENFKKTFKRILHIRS
T14 sequence (P07550 whole entry): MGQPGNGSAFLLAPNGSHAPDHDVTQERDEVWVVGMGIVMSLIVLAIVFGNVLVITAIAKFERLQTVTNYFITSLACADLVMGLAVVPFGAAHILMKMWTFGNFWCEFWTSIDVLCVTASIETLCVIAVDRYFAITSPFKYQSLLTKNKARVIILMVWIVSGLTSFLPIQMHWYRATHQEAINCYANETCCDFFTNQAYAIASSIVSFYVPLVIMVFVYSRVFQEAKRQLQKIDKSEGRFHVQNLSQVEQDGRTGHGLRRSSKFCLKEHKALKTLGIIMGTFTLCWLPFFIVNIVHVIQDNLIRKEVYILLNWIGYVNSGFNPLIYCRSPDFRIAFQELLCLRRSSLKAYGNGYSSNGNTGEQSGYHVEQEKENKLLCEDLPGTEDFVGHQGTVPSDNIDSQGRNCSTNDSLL
T13 sequence (P37231 whole entry): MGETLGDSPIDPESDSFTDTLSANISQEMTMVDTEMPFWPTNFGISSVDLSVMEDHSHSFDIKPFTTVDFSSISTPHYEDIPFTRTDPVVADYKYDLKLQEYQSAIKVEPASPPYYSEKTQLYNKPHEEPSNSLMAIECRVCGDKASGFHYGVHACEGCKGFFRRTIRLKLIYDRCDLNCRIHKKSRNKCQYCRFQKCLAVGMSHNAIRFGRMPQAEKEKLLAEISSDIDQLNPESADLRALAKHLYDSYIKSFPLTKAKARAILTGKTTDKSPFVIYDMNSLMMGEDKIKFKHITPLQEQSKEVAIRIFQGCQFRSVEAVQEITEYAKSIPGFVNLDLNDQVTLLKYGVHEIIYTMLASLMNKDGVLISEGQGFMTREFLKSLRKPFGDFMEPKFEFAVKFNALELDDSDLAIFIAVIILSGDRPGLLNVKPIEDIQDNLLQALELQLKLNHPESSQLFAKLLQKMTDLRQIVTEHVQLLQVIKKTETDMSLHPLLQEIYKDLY
T6 sequence (P08588 whole entry): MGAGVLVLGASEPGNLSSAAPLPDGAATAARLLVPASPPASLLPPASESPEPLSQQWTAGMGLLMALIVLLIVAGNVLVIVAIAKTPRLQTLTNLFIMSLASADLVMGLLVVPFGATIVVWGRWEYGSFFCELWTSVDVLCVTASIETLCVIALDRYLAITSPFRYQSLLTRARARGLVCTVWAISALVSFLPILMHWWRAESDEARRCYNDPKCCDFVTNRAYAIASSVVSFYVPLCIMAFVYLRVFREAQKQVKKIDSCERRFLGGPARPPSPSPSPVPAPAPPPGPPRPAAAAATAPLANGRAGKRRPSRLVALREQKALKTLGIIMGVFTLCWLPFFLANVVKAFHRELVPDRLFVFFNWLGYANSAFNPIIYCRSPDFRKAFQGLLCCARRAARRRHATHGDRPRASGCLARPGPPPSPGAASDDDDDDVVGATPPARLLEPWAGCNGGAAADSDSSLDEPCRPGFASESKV
T2 sequence (P34981 whole entry): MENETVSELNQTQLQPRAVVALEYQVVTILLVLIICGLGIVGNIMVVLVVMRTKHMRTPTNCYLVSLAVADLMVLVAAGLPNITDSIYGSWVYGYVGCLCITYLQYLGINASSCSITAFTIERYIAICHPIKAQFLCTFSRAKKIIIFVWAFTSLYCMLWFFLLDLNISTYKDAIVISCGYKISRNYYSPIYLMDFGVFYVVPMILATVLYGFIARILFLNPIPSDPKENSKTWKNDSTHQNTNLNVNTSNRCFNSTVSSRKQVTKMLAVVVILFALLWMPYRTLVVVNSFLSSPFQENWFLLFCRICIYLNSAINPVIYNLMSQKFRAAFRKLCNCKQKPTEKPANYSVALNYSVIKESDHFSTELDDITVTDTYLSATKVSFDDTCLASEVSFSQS
T3 sequence (Q01959 whole entry): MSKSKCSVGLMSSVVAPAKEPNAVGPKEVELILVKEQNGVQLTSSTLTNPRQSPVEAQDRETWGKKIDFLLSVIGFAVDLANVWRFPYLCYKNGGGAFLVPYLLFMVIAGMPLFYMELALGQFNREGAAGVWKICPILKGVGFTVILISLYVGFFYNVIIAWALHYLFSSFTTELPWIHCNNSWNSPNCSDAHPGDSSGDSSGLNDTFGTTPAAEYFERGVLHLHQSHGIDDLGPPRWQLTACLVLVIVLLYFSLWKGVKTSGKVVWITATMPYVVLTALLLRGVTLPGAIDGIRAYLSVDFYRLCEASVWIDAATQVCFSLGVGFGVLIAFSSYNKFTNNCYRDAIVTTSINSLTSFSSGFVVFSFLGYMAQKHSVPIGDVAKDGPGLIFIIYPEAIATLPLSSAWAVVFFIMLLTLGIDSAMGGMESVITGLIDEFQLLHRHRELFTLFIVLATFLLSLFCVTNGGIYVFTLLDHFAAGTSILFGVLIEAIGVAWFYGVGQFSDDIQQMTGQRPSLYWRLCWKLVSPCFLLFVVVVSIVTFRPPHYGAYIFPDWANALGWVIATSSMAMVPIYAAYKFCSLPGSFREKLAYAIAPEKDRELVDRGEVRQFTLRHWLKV
T1 sequence (P23975 whole entry): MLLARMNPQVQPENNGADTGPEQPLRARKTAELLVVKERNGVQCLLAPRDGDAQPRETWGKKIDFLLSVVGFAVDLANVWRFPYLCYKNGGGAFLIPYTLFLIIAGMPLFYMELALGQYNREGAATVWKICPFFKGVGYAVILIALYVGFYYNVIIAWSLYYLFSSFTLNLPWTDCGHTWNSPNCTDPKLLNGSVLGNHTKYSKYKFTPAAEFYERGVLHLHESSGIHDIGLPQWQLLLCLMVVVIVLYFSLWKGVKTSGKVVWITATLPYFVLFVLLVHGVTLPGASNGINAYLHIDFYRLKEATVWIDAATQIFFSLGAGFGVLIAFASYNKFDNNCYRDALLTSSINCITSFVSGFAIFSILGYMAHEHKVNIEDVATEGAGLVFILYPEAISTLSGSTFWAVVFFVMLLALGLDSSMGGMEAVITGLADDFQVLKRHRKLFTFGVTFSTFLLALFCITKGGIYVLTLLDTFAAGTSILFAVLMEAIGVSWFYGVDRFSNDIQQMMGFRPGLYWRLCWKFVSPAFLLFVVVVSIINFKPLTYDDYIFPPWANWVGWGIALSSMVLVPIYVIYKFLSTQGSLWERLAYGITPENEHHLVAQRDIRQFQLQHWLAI

C[C@@H](CNC(=O)[C@H](O)C(C)(C)CO)NC(=O)c1cc(F)c(F)cc1F [MMV693183]
Fold change 4'P-Pan ([1]; 24 nM): 0.6372 and 0.7412
Fold change Ac-CoA ([1]; 24 nM): 0.5886 and 0.6667
Fold change CoA ([1]; 24 nM): 1.122
Fold change Pan ([1]; 24 nM): 0.8146 and 0.8416
Fold change 4'P-Pan ([1]; 240 nM): 0.3498 and 0.3568
Fold change CoA ([1]; 240 nM): 1.064
Fold change Pan ([1]; 240 nM): 1.253 and 0.7224
effect on endogenous metabolites ([1]; dose-dependent): reduced acetyl-CoA and 4-phosphopantothenate levels
Human RBCs [2, 17]: 72.9% and 76.8% and 80.6% and 72.4%
Reticulocytes [2, 17]: 0.38% and 0.65% and 0.32% and 0.87%
Human RBCs [2, 18]: 67.9% and 72.1% and 75.9% and 68.6%
Reticulocytes [2, 18]: 0.35% and 0.44% and 0.25% and 0.57%
Human RBCs [2, 19]: 59.6% and 65.8% and 72.2% and 63.3%
Reticulocytes [2, 19]: 0.17% and 0.14% (2×) and 0.35%
Hematocrit ([2]; 10 mg/kg group): 53.45% and 54.69% and 60.66% and 56.45%
Spleen weight ([2]; 10 mg/kg group): 0.305 % of body weight and 0.306 % of body weight and 0.265 % of body weight and 0.369 % of body weight
Human RBCs [2, 20]: 78.9% and 75.9% and 78.6% and 71.6% and 75.5%
Reticulocytes [2, 20]: 0.53% and 0.42% and 0.37% and 0.39% and 0.51%
Human RBCs [2, 21]: 77.9% and 71.9% and 76% and 64.1% and 70.3%
Reticulocytes [2, 21]: 0.24% (2×) and 0.32% and 0.61% and 0.43%
Human RBCs [2, 22]: 77.4% and 67.8% and 68% and 58.3% and 68.8%
Reticulocytes [2, 22]: 0.16% and 0.23% and 0.17% and 0.22% and 0.15%
Hematocrit ([2]; 25 mg/kg group): 61.54% and 73.81% and 62.16% and 56.36% and 57.35%
Spleen weight ([2]; 25 mg/kg group): 0.362 % of body weight and 0.462 % of body weight and 0.396 % of body weight and 0.366 % of body weight and 0.21 % of body weight
Human RBCs [2, 23]: 75.4% (2×) and 77.9% and 80.2% and 74.5%
Reticulocytes [2, 23]: 0.4% and 0.55% and 0.42% and 0.47% and 0.58%
Human RBCs [2, 24]: 72.3% and 72.5% and 71.7% and 73.2% and 70.5%
Reticulocytes [2, 24]: 0.27% and 0.41% and 0.23% and 0.34% and 0.49%
Human RBCs [2, 25]: 65.4% and 71.3% and 68.2% and 66% and 66.7%
Reticulocytes [2, 25]: 0.2% (2×) and 0.1% (2×) and 0.3%
Hematocrit ([2]; 50 mg/kg group): 60.66% and 63.64% and 71.67% and 53.85% and 57.63%
Spleen weight ([2]; 50 mg/kg group): 0.357 % of body weight and 0.427 % of body weight and 0.135 % of body weight and 0.294 % of body weight and 0.382 % of body weight
hemolytic toxicity ([2]; 10, 25, 50 mg/kg for four days): Absence of detectable hemolytic toxicity; also recorded: did not show signs of hemolytic toxicity
% Inhibition of Control Specific Binding [3]: -1.3% and -5.4% and -3.35%
% Inhibition of Control Specific Binding [4]: -6.1% and -7.7% and -6.9%
% Inhibition of Control Specific Binding [5]: -10.1% and -0.3% and -5.2%
% Inhibition of Control Specific Binding [6]: -9.6% and -3.5% and -6.55%
% Inhibition of Control Specific Binding [7]: -1.9% and 2.9% and 0.5%
% Inhibition of Control Specific Binding [8]: 13.7% and 4.9% and 9.3%
% Inhibition of Control Specific Binding [9]: 6.2% and 8% and 7.1%
% Inhibition of Control Specific Binding [10]: -14.2%
% Inhibition of Control Specific Binding [11]: -8.6%
% Inhibition of Control Specific Binding [12]: -9.8% and -18.8% and -14.3%
% Inhibition of Control Specific Binding [13]: -13.7% and -11% and -12.35%
% Inhibition of Control Specific Binding [14]: -2.9% and 0.3% and -1.3%
% Inhibition of Control Specific Binding [15]: -8.7% and -7.1% and -7.9%
% Inhibition of Control Specific Binding [16]: 3.7% and -4.8% and -0.55%
